Laboratory results as given in patent US6372488B1, “AMPA-binding human GluR4 receptors” (NPS Allelix Corp., priority 1992, dated 2002).

Target: T1, human GluR4B receptor (Homo sapiens, UniProt P48058)
T1 construct: transported to the cell surface in mature form, lacking the signal peptide and consisting of 881 amino acids; expressed in transfected cells; host or cells: COS-1 cells (ATCC CRL 1650), transient, plasmid pcDNAI/humGluR4B
Experiment: ligand binding assay (NMDA), membranes of human GluR4B receptor-producing COS cells
Conditions: COS cell membrane preparation

T1 sequence (P48058 21-902): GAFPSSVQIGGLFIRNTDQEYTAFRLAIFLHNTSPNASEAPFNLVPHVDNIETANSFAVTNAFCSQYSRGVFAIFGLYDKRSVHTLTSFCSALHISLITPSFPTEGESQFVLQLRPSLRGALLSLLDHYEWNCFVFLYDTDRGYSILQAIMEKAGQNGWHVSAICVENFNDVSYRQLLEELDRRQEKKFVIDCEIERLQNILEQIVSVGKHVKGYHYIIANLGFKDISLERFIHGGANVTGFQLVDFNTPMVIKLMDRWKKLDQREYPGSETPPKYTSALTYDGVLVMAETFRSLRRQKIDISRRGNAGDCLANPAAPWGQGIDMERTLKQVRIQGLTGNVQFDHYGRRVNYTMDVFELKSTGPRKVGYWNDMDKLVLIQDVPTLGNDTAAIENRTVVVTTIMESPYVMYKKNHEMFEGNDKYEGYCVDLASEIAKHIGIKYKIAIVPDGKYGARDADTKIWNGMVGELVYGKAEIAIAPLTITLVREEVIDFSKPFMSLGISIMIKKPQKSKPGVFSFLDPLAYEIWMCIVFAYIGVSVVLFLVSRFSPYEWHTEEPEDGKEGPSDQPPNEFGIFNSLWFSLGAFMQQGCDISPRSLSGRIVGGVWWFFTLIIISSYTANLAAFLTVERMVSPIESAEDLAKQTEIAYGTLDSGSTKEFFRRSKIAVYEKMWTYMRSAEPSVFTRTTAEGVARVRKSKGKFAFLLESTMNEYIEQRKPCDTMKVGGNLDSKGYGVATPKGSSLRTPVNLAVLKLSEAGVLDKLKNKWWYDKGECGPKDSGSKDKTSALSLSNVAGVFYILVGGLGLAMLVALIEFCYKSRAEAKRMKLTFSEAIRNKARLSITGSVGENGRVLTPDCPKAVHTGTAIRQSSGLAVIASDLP

## CN[C@H](CC(=O)O)C(=O)O [NMDA, N-methyl-D-aspartate]
  binding of NMDA to human GluR4B receptor: little or no demonstrable binding
